Where two headings read alike, the source gives them in different places.
Legend:
[1] = prior chemotherapy of the patient of Clinical Example 1, adverse reactions; details: chemotherapy with mitomycin, 5-fluorouracil and cytarabine together, stopped after three weeks
Source text: (§1) Chemotherapy was tried to administering mitomycin, 5-fluorouracil and cytarabine. […] For these reasons, chemotherapy was stopped after three weeks.

rats = test: acute toxicity (LD50) by subcutaneous injection of rats; details: acute toxicity, rats, subcutaneous injection
[2] = Clinical Example 1: treatment of cachexia patient with 4,6-O-benzylidene-D-glucose; assay type: in vivo, human; details: 1,200 mg i.v. once a day; for body weight: before: 29 kg
Source text: Patient
Diagnosis: Cancer in right ovary, Cachexia caused by metastasis of cancer to peritoneum and liver
Although the adbomen of the patient was opened by an abdominal operation, it was impossible to remove the diseased portions and thus the abdomen was closed without extracting the affected portions. The patient could eat very little and thus was supplied with nutritive substances by instillations every day. The body weight of the patient decreased to 29 kg, and they were confined to bed.

[3] = Japanese Patent Laid-Open 108027/1977 and 70428/1979; cited from earlier work
in vivo = details: rat, sc
[4] = finding of effectiveness in retarding and reducing cachexia; assay type: in vivo; details: benzaldehyde and/or 4,6-O-benzylidene-D-glucose
[5] = human, in vivo
Source text: as §1

[6] = acute toxicity (LD50) by subcutaneous injection of rats; details: rat, in vivo, sc
[7] = Clinical Example 3: treatment of cachexia patient with benzaldehyde; assay type: in vivo, human; details: for Precipitation of Blood: before dosage 78; for Glutamic Acid Pyruvic Acid Transaminase (GPT): before dosage 98; for Glutamic Acid Oxaloacetic Acid Transaminase (GOT): before dosage 120; for α-fetoprotein (AFP): before dosage 20,000
Source text: Patient
Diagnosis: Symptoms of cachexia due to lung cancer (the type of cancerous tissue not being specified)
Through CT scan and echo examinations, a total of four tumors were observed, one having the dimensions of 7 cm×7 cm and each of the other three metastasized tumors having a diameter of about 1 cm. Severe symptoms due to cachexia were found.
First Day: The symptoms due to cachexia were growing worse.

[8] = 25 mg tablets, 5 tablets 4 times a day, three months

Compound: Nc1ccn([C@@H]2O[C@H](CO)[C@@H](O)[C@@H]2O)c(=O)n1 [cytarabine]
- adverse reactions [1]: intensive adverse reactions, such as anorexia, nausea and Leukopenia
- cachexia under chemotherapy [1]: the cachexia grew worse and worse

Compound: OC1O[C@@H]2COC(c3ccccc3)O[C@H]2[C@H](O)[C@H]1O (stereo partly drawn) [4,6-O-Benzylidene-D-glucose, 4,6-O-benzylidene-D-glucose]
- toxicity (rats): extremely low toxicities
- nausea ([2]; eighth day): Nausea disappeared
- food intake ([2]; eighth day, before: could eat very little): the patient could take meals
- body weight ([2]; eighty-fifth day): 35 kg
- cancer in other portions ([2]; fifty-sixth day): No change was observed
- cancer of the liver (left) ([2]; fifty-sixth day): slightly reduced
- capability of work ([2]; fifty-sixth day): capable of doing light work
- symptoms of cachexia ([2]; fifty-sixth day): disappeared completely
- body weight ([2]; fifty-sixth day): 31 kg
- mobility ([2]; nineteenth day, before: confined to bed): The patient could sit up in bed
- cachexia symptoms ([2]; thirtieth day): cachexia symptoms were alleviated
- mobility ([2]; thirtieth day): the patient could walk
- dimensions of the tumor ([2]; thirtieth day, CT scan): the dimensions of the tumor had not been reduced
- carcinostatic function [3]: exhibit carcinostatic functions
- LD50 (in vivo): 4000 mg/kg
- effect on cachexia [4]: effective in retarding and reducing cachexia

Compound: O=c1[nH]cc(F)c(=O)[nH]1 [5-fluorouracil]
- adverse reactions [5]: intensive adverse reactions, such as anorexia, nausea and Leukopenia
- cachexia under chemotherapy [1]: the cachexia grew worse and worse

Compound: CO[C@@]12[C@H](COC(N)=O)C3=C(C(=O)C(C)=C(N)C3=O)N1C[C@@H]1N[C@@H]12 [mitomycin]
- adverse reactions [1]: intensive adverse reactions, such as anorexia, nausea and Leukopenia
- cachexia under chemotherapy [1]: the cachexia grew worse and worse

Compound: O=Cc1ccccc1 [Benzaldehyde]
- toxicity (rats): extremely low toxicities
- LD50 [6]: 5000 mg/kg
- appetite ([7]; 25 mg benzaldehyde tablets, 5 tablets 4 times a day, one month): the patient recovered their appetite
- values of AFP, GOT and GPT ([7]; 25 mg tablets, 5 tablets 4 times a day, monthly): lowered favorably every month unitl they reached normal levels
- body weight [7, 8]: began to increase
- symptoms due to cachexia [7, 8]: Almost all of the symptoms due to cachexia disappeared
- body weight ([7]; one month dosage, before dosage 46): 46 kg
- Precipitation of Blood ([7]; one month dosage): 60
- Glutamic Acid Pyruvic Acid Transaminase (GPT) ([7]; one month dosage): 70
- Glutamic Acid Oxaloacetic Acid Transaminase (GOT) ([7]; one month dosage): 87
- α-fetoprotein (AFP) ([7]; one month dosage): 15,000 ng/ml
- body weight ([7]; three month dosage, before dosage 46): 47 kg
- Precipitation of Blood ([7]; three month dosage): 40
- Glutamic Acid Pyruvic Acid Transaminase (GPT) ([7]; three month dosage): 35
- Glutamic Acid Oxaloacetic Acid Transaminase (GOT) ([7]; three month dosage): 38
- α-fetoprotein (AFP) ([7]; three month dosage): 2,200 ng/ml
- body weight ([7]; two month dosage, before dosage 46): 46 kg
- Precipitation of Blood ([7]; two month dosage): 48
- Glutamic Acid Pyruvic Acid Transaminase (GPT) ([7]; two month dosage): 40
- Glutamic Acid Oxaloacetic Acid Transaminase (GOT) ([7]; two month dosage): 72
- α-fetoprotein (AFP) ([7]; two month dosage): 7,700 ng/ml
- carcinostatic function [3]: exhibit carcinostatic functions
- effect on cachexia [4]: effective in retarding and reducing cachexia
